Structures are written as SMILES.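 How tested: cells in 96-well plates exposed to compound for 48 hours at five concentrations. Definition used: TGI = concentration required for complete inhibition of growth.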

Among the test systems are HCC-2998 colon; HCT-15 colon; IGROV1 ovarian; CCRF-CEM leukemia; M19-MEL melanoma; SF-295 CNS; SK-MEL-5 melanoma; NCI-H522 lung; CAKI-1 renal; OVCAR-5 ovarian; SK-OV-3 ovarian; UO-31 renal; SNB-19 CNS; SNB-78 CNS; SN12C renal; OVCAR-8 ovarian; EKVX NSCLC; UACC-62 melanoma; SR leukemia; DLD-1 colon.
Assay in all cases: NCI tumour cell line growth inhibition, 48 h

As for `O=C1c2ccccc2N(O)C1(c1ccccc1)C1CCCC=C1N1CCOCC1` (stereo not given), the TGI with HCC-2998 colon, in the experiment on HCT-15 colon, in the experiment on IGROV1 ovarian, in the experiment with CCRF-CEM leukemia, with M19-MEL melanoma and in the experiment on SF-295 CNS was over 100 µM each time. For the same molecule, the TGI with SK-MEL-5 melanoma is over 100 µM; in the experiment with NCI-H522 lung, 73 µM; in the experiment with CAKI-1 renal, over 100 µM; in the experiment on OVCAR-5 ovarian it was over 100 µM; in the experiment on SK-OV-3 ovarian it was over 100 µM; in the experiment on UO-31 renal it was over 100 µM. Besides, the TGI in the experiment with SNB-19 CNS, in the experiment with SNB-78 CNS, in the experiment on SN12C renal, in the experiment on OVCAR-8 ovarian, with EKVX NSCLC and in the experiment with UACC-62 melanoma was over 100 µM each time. Moreover, the TGI with SR leukemia and with DLD-1 colon was over 100 µM in each case.

For the origin of these results see PubChem BioAssay (NCI).
